In one test the target is T1, XIAP-BIR3 (Homo sapiens, UniProt P98170).
T1 construct: XIAP-BIR3; purchased Reaction Biology APT-11-374
Nature of the test: XIAP-BIR3 fluorescence polarization binding assay. The conditions noted are these: FP, probe AbuRPFK-5FAM (SM5F) 5 nM, XIAP-BIR3 40 nM, 60 min at 25° C. From the text: (§1) IAPs are one main cause of cancer development and may result from overexpression of anti-apoptotic proteins. This protocol establishes three binding assays for […] Bir3 domain, cIAP1 and cIAP2 using FP (fluorescence polariation) technology. The fluorescence probe used is a synthetic peptide conjugated to 5-carboxyfluorescein (AbuRPFK-5FAM). The fluorescence polarization value (mP) was detected by Envision, which was used to reflect the binding degree of protein and fluorescent marker.
(§2) • a. Prepare 100 times of the final cpd concentration in appropriate tube and transfer 5 uL cpd to 45 μL 1× reaction buffer with 10% DMSO • b. The final reference cpd concentration is 10000, 3333.3, 1111.1, 370.4, 123.4, 41.2, 13.7, 4.57, 1.52, 0.51, 0.17 and 0 nM. So the 100 times of the concentration is 1000, 333.3, 111.1, 37.04, 12.34, 4.12, […], 0.15, 0.05, 0.017 and 0 μM. The final test cpds concentration is 3333.3, 1111.1, 370.4, 123.4, 41.2, 13.7, 4.57, 1.52, 0.51, 0.17, 0.057 and 0 nM. So the 100 times of the concentration is 333.3, 111.1, 37.04, 12.34, 4.12, […], 0.15, 0.05, 0.017, 0.0057 and […] • c. Add 8 μL/well each dose enzyme to 384 wen microplate (ProxiPlate-384 F Plus, 6008260) using multichannel pipette, prepared in Table 3. • d. Centrifuge at 1000 rpm • e. Add 2 μL/well cpd to 384 well microplate (ProxiPlate-384 F Plus, 6008260) using multichannel pipette, prepared in step a). • f. Centrifuge at 1000 rpm RT, 15 min. • g Start the assay by adding 10 uL/well substrate (prepared in Table 4) to the same 384 wen microplate using multichannel pipette. • h. Centrifuge at 1000 rpm. • i. Cover the assay plate and incubate for 60 min at 25° C. • j. Read on Envision 2104 for mP and plot the IC50s with mP values. • k. Data analysis: IC50s were determined based on a non-linear regression analysis of data collected.
On the technique in general: Polarisation of emitted light reports the rotation of a fluorescent probe.

In another test the target is T2, cIAP2-BIR3 (Homo sapiens, UniProt Q13489).
T2 construct: cIAP2-BIR3; purchased Reaction Biology APT-11-372
In words: cIAP2-BIR3 fluorescence polarization binding assay. The following applies: FP, probe AbuRPFK-5FAM (SM5F) 5 nM, cIAP2-BIR3 80 nM, 60 min at 25° C.
Excerpt: as §1, §2

In a further test the target is T3, cIAP1-BIR3 (Homo sapiens, UniProt Q13490).
T3 construct: cIAP1-BIR3; purchased Reaction Biology APT-11-370
In words: cIAP1-BIR3 fluorescence polarization binding assay. The following applies: FP, probe AbuRPFK-5FAM (SM5F) 5 nM, cIAP1-BIR3 15 nM, 60 min at 25° C.
Excerpt: as §1, §2

Drawing on patent US20220220152A1, “BIVALENT ANTAGONISTS OF INHIBITORS OF APOPTOSIS PROTEINS” (Hepagene Therapeutics (HK) Limited, priority 2019, published 2022), this text covers IC50 for ten molecules.

T3 sequence (Q13490 253-363 limits assumed): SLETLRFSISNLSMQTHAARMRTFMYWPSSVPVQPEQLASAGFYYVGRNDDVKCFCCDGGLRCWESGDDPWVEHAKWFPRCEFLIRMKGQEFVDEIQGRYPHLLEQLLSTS
T2 sequence (Q13489 238-349 limits assumed): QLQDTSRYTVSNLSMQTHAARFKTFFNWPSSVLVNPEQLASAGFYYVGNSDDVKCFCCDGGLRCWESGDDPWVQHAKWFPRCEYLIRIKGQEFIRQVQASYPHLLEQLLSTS
T1 sequence (P98170 241-356 limits assumed): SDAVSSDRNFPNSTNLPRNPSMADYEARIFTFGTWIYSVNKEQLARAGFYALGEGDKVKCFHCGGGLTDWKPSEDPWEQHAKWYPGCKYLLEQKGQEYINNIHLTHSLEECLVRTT

The term IC50 denotes the point on the concentration scale where inhibition reaches its midpoint. In the case of `CN[C@@H](C)C(=O)N[C@H](C(=O)N1CCC[C@H]1C(=O)N[C@@H]1CCCc2c(-c3cccc(-c4cccc5c4CCC[C@H]5NC(=O)[C@@H]4CCCN4C(=O)[C@@H](NC(=O)[C@H](C)NC)C(C)(C)C)c3)cccc21)C(C)(C)C` [Compound III-F, (2S)-1-[(2S)-3,3-dimethyl-2-[(2S)-2-(methylamino)propanamido]butanoyl]-N-[(1R)-5-[3-[(5R)-5-[(2S)-1-[(2S)-3,3-dimethyl-2-[(2S)-2-(methylamino)propanamido]butanoyl]pyrrolidine-2-amido]-5,6,7,8-tetrahydronaphthalen-1-yl]phenyl]-1,2,3,4-tetrahydronaphthalen-1-yl]pyrrolidine-2-carboxamide], the values for the IC50 at XIAP-BIR3, at cIAP2-BIR3 and at cIAP1-BIR3 were 10 to 100 nM, 10 to 100 nM and 1 to 10 nM, respectively.
Turning to `CN[C@@H](C)C(=O)N[C@H](C(=O)N1CCC[C@H]1C(=O)N[C@@H]1CCCc2c(-c3ccc(-c4ccc(-c5cccc6c5CCC[C@H]6NC(=O)[C@@H]5CCCN5C(=O)[C@@H](NC(=O)[C@H](C)NC)C5CCCCC5)cc4)cc3)cccc21)C1CCCCC1` [Compound III-G, (S)-1-((S)-2-cyclohexyl-2-((S)-2-(methylamino)propanamido)acetyl)-N—((R)-5-(4′-((R)-5-((S)-1-((S)-2-cyclohexyl-2-((S)-2-(methylamino)propanamido)acetyl)pyrrolidine-2-carboxamido)-5,6,7,8-tetrahydronaphthalen-1-yl)-[1,1′-biphenyl]-4-yl)-1,2,3,4-tetrahydronaphthalen-1-yl)pyrrolidine-2-carboxamide], the IC50 fell in the range of 100 to 1000 nM on XIAP-BIR3, 10 to 100 nM at cIAP2-BIR3 and 1 to 10 nM at cIAP1-BIR3.
Turning to `CN[C@@H](C)C(=O)N[C@@H](C)C(=O)N1CCC[C@H]1C(=O)N[C@@H]1CCCc2c(-c3ccc(-c4cccc5c4CCC[C@H]5NC(=O)[C@@H]4CCCN4C(=O)[C@H](C)NC(=O)[C@H](C)NC)cc3)cccc21` [Compound III-H, (2S)-1-[(2S)-2-[(2S)-2-(methylamino)propanamido]propanoyl]-N-[(1R)-5-[4-[(5R)-5-[(2S)-1-[(2S)-2-[(2S)-2-(methylamino)propanamido]propanoyl]pyrrolidine-2-amido]-5,6,7,8-tetrahydronaphthalen-1-yl]phenyl]-1,2,3,4-tetrahydronaphthalen-1-yl]pyrrolidine-2-carboxamide], the half-inhibitory concentration (IC50) on XIAP-BIR3 was 100 to 1000 nM; on cIAP2-BIR3, 10 to 100 nM; at cIAP1-BIR3, 1 to 10 nM.
The like results for `CN[C@@H](C)C(=O)N[C@H](C(=O)N1CCC[C@H]1C(=O)N[C@@H]1CCCc2c(-c3ccc(-c4cccc5c4CCC[C@H]5NC(=O)[C@@H]4CCCN4C(=O)[C@@H](NC(=O)[C@H](C)NC)C(C)(C)C)cc3)cccc21)C(C)(C)C` [Compound III-J, (2S)-1-[(2S)-3,3-dimethyl-2-[(2S)-2-(methylamino)propanamido]butanoyl]-N-[(1R)-5-[4-[(5R)-5-[(2S)-[-(2S)-3,3-dimethyl-2-[(2S)-2-(methylamino)propanamido]butanoyl]pyrrolidine-2-amido]-5,6,7,8-tetrahydronaphthalen-1-yl]phenyl]-1,2,3,4-tetrahydronaphthalen-1-yl]pyrrolidine-2-carboxamide] were, in that order, 10 to 100 nM, 1 to 10 nM and 1 to 10 nM.
For the molecule `CN[C@@H](C)C(=O)N[C@H](C(=O)N1C[C@@H](O)C[C@H]1C(=O)N[C@@H]1CCCc2c(-c3ccc(-c4cccc5c4CCC[C@H]5NC(=O)[C@@H]4C[C@H](O)CN4C(=O)[C@@H](NC(=O)[C@H](C)NC)C4CCCCC4)cc3)cccc21)C1CCCCC1` [Compound III-K, (2S,4S)-1-[(2S)-2-cyclohexyl-2-[(2S)-2-(methylamino)propanamido]acetyl]-N-[(1R)-5-[4-[(5R)-5-[(2S,4S)-1-[(2S)-2-cyclohexyl-2-[(2S)-2-(methylamino)propanamido]acetyl]-4-hydroxypyrrolidine-2-amido]-5,6,7,8-tetrahydmnaphthalen-1-yl]phenyl]-1,2,3,4-tetrahydronaphthalen-1-yl]-4-hydroxypyrrolidine-2-carboxamide], the IC50 at XIAP-BIR3 lay within 10 to 100 nM; on cIAP2-BIR3, 1 to 10 nM; at cIAP1-BIR3, 1 to 10 nM.
As for `CN[C@@H](C)C(=O)N[C@H](C(=O)N1CCC[C@H]1C(=O)N[C@@H]1CCCc2cc(-c3ccc(-c4ccc5c(c4)CCC[C@H]5NC(=O)[C@@H]4CCCN4C(=O)[C@@H](NC(=O)[C@H](C)NC)C4CCCCC4)cc3)ccc21)C1CCCCC1` [Compound III-L, (2S)-1-[(2S)-2-cyclohexyl-2-[(2S)-2-(methylamino)propanamido]acetyl]-N-[(1R)-6-[4-[(5R)-5-[(2S)-1-[(2S)-2-cyclohexyl-2-[(2S)-2-(methylamino)propanamido]acetyl]pyrolidine-2-amido]-5,6,7,8-tetrahydronaphthalen-2-yl]phenyl]-1,2,3,4-tetrahydronaphthalen-1-yl]pyrrolidine-2-carboxamide], the IC50 lay within 100 to 1000 nM at XIAP-BIR3, 100 to 1000 nM on cIAP2-BIR3 and 10 to 100 nM at cIAP1-BIR3.
Take `CN[C@@H](C)C(=O)N[C@H](C(=O)N1CCC[C@@H]1C(=O)N[C@@H]1CCCc2ccc(-c3ccc(-c4ccc5c(c4)[C@H](NC(=O)[C@@H]4CCCN4C(=O)[C@@H](NC(=O)[C@H](C)NC)C4CCCCC4)CCC5)cc3)cc21)C1CCCCC1` [Compound III-M, (2S)-1-[(2S)-2-cyclohexyl-2-[(2S)-2-(methylamino)propanamido]acetyl]-N-[(1R)-7-[4-[(8R)-8-[(2R)-1-[(2S)-2-cyclohexyl-2-[(2S)-2-(methylamino)propanamido]acetyl]pyrrolidine-2-amido]-5,6,7,8-tetrahydronaphthalen-2-yl]phenyl]-1,2,3,4-tetrahydronaphthalen-1-yl]pyrrolidine-2-carboxamide]: the IC50 at XIAP-BIR3 is over 1000 nM; on cIAP2-BIR3 it was 100 to 1000 nM; at cIAP1-BIR3 it was 10 to 100 nM.
The like results for `CN[C@@H](C)C(=O)N[C@H](C(=O)N1CCC[C@H]1C(=O)N[C@@H]1CCCc2c(OCCc3ccc(CCOc4cccc5c4CCC[C@H]5NC(=O)[C@@H]4CCCN4C(=O)[C@@H](NC(=O)[C@H](C)NC)C4CCCCC4)cc3)cccc21)C1CCCCC1` [Compound IV, (2S)-1-[(2S)-2-Cyclohexyl-2-[(2S)-2-(methylamino)propanamido]acetyl]-N-[(1R)-5-[2-[4-(2-[[(5R)-5-[(2S)-1-[(2S)-2-cyclohexyl-2-[(2S)-2-(methylamino)propanamido]acetyl]pyrrolidine-2-amido]-5,6,7,8-tetrahydronaphthalen-1-yl]oxy]ethyl)phenyl]ethoxy]-1,2,3,4-tetrahydronaphthalen-1-yl]pyrrolidine-2-carboxamide] were, in that order, 100 to 1000 nM, 10 to 100 nM and 10 to 100 nM.
The like results for `CN[C@@H](C)C(=O)N[C@H](C(=O)N1CCC[C@H]1C(=O)N[C@@H]1CCCc2c(OC/C=C/COc3cccc4c3CCC[C@H]4NC(=O)[C@@H]3CCCN3C(=O)[C@@H](NC(=O)[C@H](C)NC)C3CCCCC3)cccc21)C1CCCCC1` [Compound IV-A, (2S)-1-[(2S)-2-Cyclohexyl-2-[(2S)-2-(methylamino)propanamido]acetyl]-N-[(1R)-5-[[(2E)-4-[[(5R)-5-[(2S)-1-[(2S)-2-cyclohexyl-2-[(2S)-2-(methylamino)propanamido]acetyl]pyrrolidine-2-amido]-5,6,7,8-tetrahydronaphthalen-1-yl]oxy]but-2-en-1-yl]oxy]-1,2,3,4-tetrahydronaphthalen-1-yl]pyrrolidine-2-carboxamide] were, in that order, 10 to 100 nM, 10 to 100 nM and 1 to 10 nM.
The like results for `CN[C@@H](C)C(=O)N[C@H](C(=O)N1CCC[C@H]1C(=O)N[C@@H]1CCCc2c(OCC#CCOc3cccc4c3CCC[C@H]4NC(=O)[C@@H]3CCCN3C(=O)[C@@H](NC(=O)[C@H](C)NC)C3CCCCC3)cccc21)C1CCCCC1` [Compound IV-B, (S)-1-((S)-2-Cyclohexyl-2-((S)-2-(methylamino)propanamido)acetyl)-N—((R)-5-(4-((R)-5-((S)-1-((S)-2-cyclohexyl-2-((S)-2-(methylamino)propanamido)acetyl)pyrrolidine-2-carboxamido)-5,6,7,8-tetrahydronaphthalen-1-yloxy)but-2-ynyloxy)-1,2,3,4-tetrahydronaphthalen-1-yl)pyrrolidine-2-carboxamide] were, in that order, 10 to 100 nM, 10 to 100 nM and 1 to 10 nM.
